Assay results taken from ChEMBL document CHEMBL1201862, “PubChem BioAssay data set” (2004).
Activity calls are given as the source filed them.

Assays:
[1] = target: Luciferin 4-monooxygenase (Photinus pyralis, UniProt P08659); test: firefly luciferase enzyme inhibitors, dose response, biochemical, luminescence (AID 1891)
[2] = Luminescence Cell-Based Dose Confirmation HTS to Identify Inhibitors of Platelet Dense Granule Release. [Related pubchem assays: 1663 (Primary HTS), 1678 (Summary of Project)]; type: functional
[3] = target: T1, Mannose-6-phosphate isomerase (Homo sapiens, UniProt P34949); test: human PMI inhibitors, high substrate, primary screen, biochemical, fluorescence intensity, high mannose 6-phosphate (AID 1220)
T1 sequence (P34949 whole entry): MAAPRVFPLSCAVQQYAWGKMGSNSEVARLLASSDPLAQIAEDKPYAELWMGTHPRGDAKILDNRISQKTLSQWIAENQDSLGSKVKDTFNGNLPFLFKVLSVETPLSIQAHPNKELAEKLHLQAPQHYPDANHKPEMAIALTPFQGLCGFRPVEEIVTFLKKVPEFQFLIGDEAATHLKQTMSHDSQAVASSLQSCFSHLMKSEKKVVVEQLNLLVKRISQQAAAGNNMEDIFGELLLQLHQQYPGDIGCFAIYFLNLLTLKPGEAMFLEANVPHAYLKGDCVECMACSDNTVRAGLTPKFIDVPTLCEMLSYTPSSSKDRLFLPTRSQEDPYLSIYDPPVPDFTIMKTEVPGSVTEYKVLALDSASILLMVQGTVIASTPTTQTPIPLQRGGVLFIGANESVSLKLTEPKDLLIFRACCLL

[4] = target: Long-chain-fatty-acid--AMP ligase FadD28 (Mycobacterium tuberculosis, UniProt P9WQ59); test: Fluorescence polarization aasay to screen for inhibitors that compete for the binding of FadD28 to a bisubstrate Measured in Biochemical System Using Plate Reader - 2147-01_Inhibitor_Dose_CherryPick_Activity.; type: functional, Mycobacterium tuberculosis H37Rv
Chain of Long-chain-fatty-acid--AMP ligase FadD28 (P9WQ59 whole entry, the tested form may be a part): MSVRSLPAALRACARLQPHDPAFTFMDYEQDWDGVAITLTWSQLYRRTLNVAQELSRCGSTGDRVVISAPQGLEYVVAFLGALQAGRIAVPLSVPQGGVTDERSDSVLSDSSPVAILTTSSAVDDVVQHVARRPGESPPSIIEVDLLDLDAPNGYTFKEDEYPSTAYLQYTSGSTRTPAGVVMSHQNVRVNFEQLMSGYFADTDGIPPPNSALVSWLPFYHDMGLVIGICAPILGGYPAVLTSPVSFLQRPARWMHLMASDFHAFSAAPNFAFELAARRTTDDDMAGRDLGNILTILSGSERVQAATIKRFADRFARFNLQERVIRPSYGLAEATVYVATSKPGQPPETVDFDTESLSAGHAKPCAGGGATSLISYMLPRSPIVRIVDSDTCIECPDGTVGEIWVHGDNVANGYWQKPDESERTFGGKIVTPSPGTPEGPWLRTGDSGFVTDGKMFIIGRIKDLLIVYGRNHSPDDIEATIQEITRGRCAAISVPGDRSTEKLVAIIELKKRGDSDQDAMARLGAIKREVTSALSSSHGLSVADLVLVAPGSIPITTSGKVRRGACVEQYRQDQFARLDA

[5] = target: T2, Oxysterols receptor LXR-beta (Homo sapiens, UniProt P55055); type: functional, cell-based;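 also: Cell-based luminescence dose-response assay of agonist activity at LXR, run as a confirmatory counterscreen to a daf-12 agonist screen; HEK293 cells with Gal4-LXR fusion and GAL4-driven luciferase reporter; agonist potency from rising luciferase signal of a Gal4-LXR reporter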
T2 sequence (P55055 whole entry): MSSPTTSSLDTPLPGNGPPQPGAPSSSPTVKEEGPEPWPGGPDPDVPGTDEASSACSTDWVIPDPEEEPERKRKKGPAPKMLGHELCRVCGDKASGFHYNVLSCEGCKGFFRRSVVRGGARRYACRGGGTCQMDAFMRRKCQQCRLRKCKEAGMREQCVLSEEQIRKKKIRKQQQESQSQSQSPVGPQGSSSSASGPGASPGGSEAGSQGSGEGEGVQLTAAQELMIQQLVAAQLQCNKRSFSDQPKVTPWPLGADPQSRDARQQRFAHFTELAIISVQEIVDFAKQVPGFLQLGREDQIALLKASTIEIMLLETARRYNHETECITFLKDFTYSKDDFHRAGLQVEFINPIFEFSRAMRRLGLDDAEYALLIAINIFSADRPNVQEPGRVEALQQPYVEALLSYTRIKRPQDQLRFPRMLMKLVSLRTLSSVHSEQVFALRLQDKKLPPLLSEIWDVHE

Paired box protein Pax-8 = Paired box protein Pax-8 (Homo sapiens, UniProt Q06710); test: inhibitors of PAX8-driven TPO luciferase reporter, dose response, RMG-I cells, cherry-pick (AID 687027); type: functional, cell-based;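 also: luciferase reporter driven by Pax8 target thyroperoxidase promoter measured by SteadyGlo luminescence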
Chain of Paired box protein Pax-8 (Q06710 whole entry, the tested form may be a part): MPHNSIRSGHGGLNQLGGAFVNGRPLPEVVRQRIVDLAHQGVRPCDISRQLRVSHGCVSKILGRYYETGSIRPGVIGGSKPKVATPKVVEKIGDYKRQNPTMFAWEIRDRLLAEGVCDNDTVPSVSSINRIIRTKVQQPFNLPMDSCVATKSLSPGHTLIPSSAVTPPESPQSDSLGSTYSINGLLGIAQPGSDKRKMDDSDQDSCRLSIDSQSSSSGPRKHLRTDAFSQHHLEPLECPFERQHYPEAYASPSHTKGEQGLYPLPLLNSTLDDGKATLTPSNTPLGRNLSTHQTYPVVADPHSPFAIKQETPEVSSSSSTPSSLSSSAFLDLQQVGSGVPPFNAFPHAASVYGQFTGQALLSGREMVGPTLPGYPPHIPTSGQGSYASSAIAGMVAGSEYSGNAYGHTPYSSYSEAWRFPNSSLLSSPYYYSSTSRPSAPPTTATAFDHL

[6] = inhibitors of clade B AD8 Env fusion, dose response, cell-based, cherry-pick (AID 652062); type: functional;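 also: luciferase signal from cell-cell fusion driven by HIV-1 clade B AD8 Env; potency is for inhibitors of fusion seen as a drop in luminescence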
[7] = IOSE-T80 ovarian epithelial cell cytotoxicity, dose response, cytotoxicity control for PAX8 inhibitor project, plate reader, dry powder samples (AID 743045); type: functional, cell-based
[8] = inhibitors of PGC1a acetylation in cells, dose response, cell-based, cherry-picked samples (AID 720514); type: functional;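 also: potency may reflect raised or lowered acetylation signal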
[9] = NIH:OVCAR-3 ovarian cancer cell cytotoxicity, dose response, PAX8 inhibitor project, plate reader, dry powder samples (AID 743044); type: functional, cell-based
[10] = A549 cell cytotoxicity, dose response, cytotoxicity control, plate reader, cherry-pick, antagonist series (AID 743412); type: functional, cell-based
[11] = IGROV1 ovarian cancer cell cytotoxicity, dose response, PAX8 inhibitor project, plate reader, dry powder samples (AID 743043); type: functional, cell-based; details: IGROV-1
[12] = LGR2 antagonists, dose response, cell-based, HEK293, CRE-luciferase reporter, cherry pick, set 2 (AID 743343); type: functional;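 also: transfected cells were stimulated with diluted bursicon conditioned medium after compound addition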
[13] = non-specific cell cytotoxicity, dose response, cytotoxicity control for PAX8 inhibitor project, plate reader, dry powder samples (AID 743021); type: functional, cell-based
[14] = MC4R antagonists, dose response, counter-screen for LGR2 antagonist project, cell-based, plate reader, cherry pick (AID 743444); type: functional;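 also: transfected HEK 293 cells stimulated with alpha-MSH peptide; potency of inhibitors of the alpha-MSH evoked signal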
[15] = cytotoxicity in OVCAR8 ovarian cancer cells, dose response, PAX8 project, cell-based, plate reader, dry powder samples (AID 743197); type: functional; details: OVCAR-8
[16] = HEK293 cell cytotoxicity, dose response, cytotoxicity control, plate reader, cherry-picked samples (AID 743446); type: functional, cell-based
[17] = HepG2 cell cytotoxicity, dose response, cytotoxicity control, plate reader, cherry-pick, antagonist series (AID 743416); type: functional, cell-based
[18] = P. falciparum 3D7-ScDHODH growth inhibitors, dose response, SYBR Green, dry powder samples (AID 1159570); type: functional, cell-based;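 also: parasite growth measured after 72 hours of compound exposure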
[19] = HepG2 cell cytotoxicity, dose response, cytotoxicity control, plate reader, dry powder samples (AID 1159569); type: functional, cell-based;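 also: inhibitor potency with signal falling toward the positive control level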
[20] = P. falciparum Dd2 growth inhibitors, dose response, SYBR Green, cherry-picked samples (AID 1159567); type: functional, cell-based
[21] = P. falciparum Dd2 growth inhibitors, dose response, SYBR Green, dry powder samples (AID 1159566); type: functional, cell-based;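 also: potency for growth inhibition with lower SYBR green DNA signal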
[22] = HepG2 cell cytotoxicity, dose response, cytotoxicity control, cherry-picked samples (AID 1159577); type: functional, cell-based
[23] = P. falciparum ATP4 D1247Y mutant growth inhibitors, dose response, NITD609-resistant line, SYBR Green, dry powder (AID 1159571); type: functional, cell-based;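 also: parasites synchronized at ring stage by sorbitol before testing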
[24] = A2780 ovarian cancer cell cytotoxicity, dose response, cytotoxicity control, plate reader, dry powder samples (AID 743046); type: functional, cell-based
[25] = HeLa 2N DNA content increase, dose response, cell-based, IC50 (AID 1117349); type: functional
[26] = HeLa 4N DNA content increase, dose response, cell-based, IC50 (AID 1117351); type: functional
[27] = M. tuberculosis H37Rv growth inhibitors, H37Rv strain (AID 1626); type: functional
[28] = target: RNA-editing ligase 1, mitochondrial (Trypanosoma brucei brucei, UniProt P86926); test: TbREL1 ligase inhibitors, dose response, biochemical, fluorescence, Trypanosoma brucei (AID 1117295); type: functional
Chain of RNA-editing ligase 1, mitochondrial (P86926 whole entry): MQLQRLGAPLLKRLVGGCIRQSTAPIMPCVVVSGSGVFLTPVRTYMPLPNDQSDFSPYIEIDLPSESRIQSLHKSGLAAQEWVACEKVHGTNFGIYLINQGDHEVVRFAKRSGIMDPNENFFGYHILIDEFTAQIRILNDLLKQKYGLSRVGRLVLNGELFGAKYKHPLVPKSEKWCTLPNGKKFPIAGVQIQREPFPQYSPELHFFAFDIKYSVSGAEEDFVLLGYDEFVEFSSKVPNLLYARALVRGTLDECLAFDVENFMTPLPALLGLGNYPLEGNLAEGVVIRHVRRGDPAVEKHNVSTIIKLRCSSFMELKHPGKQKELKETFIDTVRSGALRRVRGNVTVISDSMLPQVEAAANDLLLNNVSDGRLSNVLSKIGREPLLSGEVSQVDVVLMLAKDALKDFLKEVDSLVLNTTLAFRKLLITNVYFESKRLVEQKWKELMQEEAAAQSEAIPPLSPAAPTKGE

Cytochrome P450 2D6 = Cytochrome P450 2D6 (Homo sapiens, UniProt P10635);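 also: CYP2D6 member of a cytochrome P450 panel assay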
Chain of Cytochrome P450 2D6 (P10635 whole entry): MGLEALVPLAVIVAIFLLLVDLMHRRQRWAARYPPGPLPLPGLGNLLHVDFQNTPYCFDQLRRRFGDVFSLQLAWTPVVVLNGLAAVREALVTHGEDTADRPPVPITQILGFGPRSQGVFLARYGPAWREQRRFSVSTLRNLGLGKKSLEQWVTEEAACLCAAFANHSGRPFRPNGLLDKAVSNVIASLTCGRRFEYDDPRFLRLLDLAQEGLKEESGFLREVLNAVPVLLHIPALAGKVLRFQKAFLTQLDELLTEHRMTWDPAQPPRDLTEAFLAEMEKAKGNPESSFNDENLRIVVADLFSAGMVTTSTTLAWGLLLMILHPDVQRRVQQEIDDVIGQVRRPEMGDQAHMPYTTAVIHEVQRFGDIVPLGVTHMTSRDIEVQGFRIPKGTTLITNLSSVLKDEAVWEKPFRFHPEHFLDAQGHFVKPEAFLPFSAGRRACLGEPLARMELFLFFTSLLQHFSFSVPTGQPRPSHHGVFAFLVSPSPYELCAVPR

Chain of Luciferin 4-monooxygenase (P08659 whole entry): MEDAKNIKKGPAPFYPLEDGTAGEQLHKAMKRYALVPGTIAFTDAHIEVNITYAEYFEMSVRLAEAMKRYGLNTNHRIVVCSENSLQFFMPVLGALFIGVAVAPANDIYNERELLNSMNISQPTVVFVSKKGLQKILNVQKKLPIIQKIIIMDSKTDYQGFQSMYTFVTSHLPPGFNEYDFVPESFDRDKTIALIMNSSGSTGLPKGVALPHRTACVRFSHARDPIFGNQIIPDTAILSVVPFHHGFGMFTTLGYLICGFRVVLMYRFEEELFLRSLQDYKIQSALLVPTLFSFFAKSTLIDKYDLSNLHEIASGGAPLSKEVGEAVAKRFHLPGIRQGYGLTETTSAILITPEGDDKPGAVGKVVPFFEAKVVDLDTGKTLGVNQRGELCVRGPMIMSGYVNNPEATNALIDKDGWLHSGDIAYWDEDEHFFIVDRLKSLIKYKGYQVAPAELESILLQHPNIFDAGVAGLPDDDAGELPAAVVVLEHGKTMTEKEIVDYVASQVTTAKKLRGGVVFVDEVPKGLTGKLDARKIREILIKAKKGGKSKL

C/N=c1\scc(-c2ccccc2F)n1/N=C/c1ccc(O)c(O)c1O
active: EC50 [1] 1.68 µM | EC50 [2] 2.46 µM | IC50 [3] 25.8 µM
inactive: AC50 [4] 32 µM | EC50 [5] > 67.5 µM | EC50 (cells) > 67.5 µM

COc1ccccc1C#Cc1ccc([C@H]2[C@H](C#N)N(C(=O)C3CCCC3)[C@H]2CO)cc1
active: AC50 (Paired box protein Pax-8) 4.38 µM | AC50 [6] 9.51 µM | AC50 [7] 21.8 µM | AC50 [8] 4.17 µM | AC50 [9] 8.21 µM | AC50 [11] 32.2 µM | AC50 [12] 9.13 µM | AC50 [13] 19.8 µM | AC50 [14] 3.59 µM | AC50 [15] 10.6 µM
inactive: AC50 [10] > 52 µM | AC50 [16] > 52 µM

C[C@@H]1CN([C@@H](C)CO)C(=O)c2c(c3ccccc3n2C)-c2ccccc2CO[C@@H]1CN(C)S(=O)(=O)c1ccc(C(F)(F)F)cc1
inactive: AC50 [22] > 39 µM
active: AC50 (Paired box protein Pax-8) 6.8 µM | AC50 [10] 22.3 µM | AC50 [17] 21.9 µM | AC50 [11] 58.4 µM | AC50 [12] 51.6 µM | AC50 [14] 54.3 µM | AC50 [16] 34.5 µM | AC50 [18] 2.24 µM | AC50 [19] 20.9 µM | AC50 [20] 2.57 µM | AC50 [21] 1.63 µM | AC50 [23] 2.21 µM

COc1ccc(S(=O)(=O)N2CCCCN3[C@H](CO)[C@@H](c4ccc(C#CC(C)C)cc4)[C@H]3C2)cc1
active: AC50 (Paired box protein Pax-8) 12 µM | AC50 [24] 27.1 µM | AC50 [9] 34 µM
inactive: AC50 [15] > 70 µM

COC(=O)c1nc(Cl)c(Cl)nc1N
active: IC50 [25] 0.334 µM | IC50 [26] 0.511 µM

COc1ccc(/N=C/C2=C(O)OCC2)cc1
active: IC50 [27] > 100 µM

COc1cccc(CN(C)C(=O)[C@H]2O[C@@H](n3cnc4c(=O)[nH]c(N)nc43)[C@H](O)[C@@H]2O)c1
inactive: IC50 [28] > 96.6 µM

O=C(C1CCC1)N1C[C@@H]2N[C@H](C1)[C@@H]2c1ccc(-c2ccccc2F)cc1
active: AC50 [18] 3.03 µM | AC50 [19] 19.5 µM | AC50 [20] 2.24 µM | AC50 [21] 2.5 µM | AC50 [23] 3.47 µM

CCCCc1ccc2[nH]c(NC(=O)OC)nc2c1 [PARBENDAZOLE]
inconclusive: AC50 (Cytochrome P450 2D6) 1.58 µM
active: IC50 [25] 0.0104 µM | IC50 [26] 0.0106 µM
